Measured values reported in patent publication US9839627B2, “Methods of treating fragile X associated disorders, ADHD, and autism spectrum disorder” (Neurovance, Inc., priority 2013, dated 2017).

Columns and labels:
[1] = biological target: norepinephrine reuptake (NE) (Homo sapiens, UniProt P23975); test: norepinephrine reuptake inhibition; type: biochemical; settings: unbalanced triple reuptake inhibitor; compared with DA and 5-HT reuptake
dopamine reuptake (DA) = dopamine reuptake (DA) (Homo sapiens, UniProt Q01959); test: dopamine reuptake inhibition; type: biochemical; settings: fraction of the potency towards NE reuptake
dopamine reuptake (DA), sequence (Q01959 whole entry): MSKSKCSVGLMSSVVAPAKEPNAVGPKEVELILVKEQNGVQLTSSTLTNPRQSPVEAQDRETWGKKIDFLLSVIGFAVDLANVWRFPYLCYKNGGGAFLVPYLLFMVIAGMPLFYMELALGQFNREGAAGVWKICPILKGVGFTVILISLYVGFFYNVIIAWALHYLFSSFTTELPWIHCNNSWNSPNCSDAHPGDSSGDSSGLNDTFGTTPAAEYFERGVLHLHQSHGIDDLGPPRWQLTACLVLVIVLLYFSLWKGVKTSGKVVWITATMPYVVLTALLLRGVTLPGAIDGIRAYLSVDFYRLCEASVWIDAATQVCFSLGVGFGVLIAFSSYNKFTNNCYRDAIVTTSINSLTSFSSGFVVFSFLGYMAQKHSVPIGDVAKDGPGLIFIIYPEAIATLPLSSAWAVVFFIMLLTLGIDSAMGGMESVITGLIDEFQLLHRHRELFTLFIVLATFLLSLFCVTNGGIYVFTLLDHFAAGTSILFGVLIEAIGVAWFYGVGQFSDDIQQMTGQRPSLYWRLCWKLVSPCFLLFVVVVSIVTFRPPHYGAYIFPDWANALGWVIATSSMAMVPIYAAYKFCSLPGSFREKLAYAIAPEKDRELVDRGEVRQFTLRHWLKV

[2] = biological target: serotonin reuptake (5-HT) (Homo sapiens, UniProt P31645); test: serotonin reuptake inhibition; type: biochemical; settings: fraction of the potency towards NE reuptake
serotonin reuptake (5-HT), sequence (P31645 whole entry): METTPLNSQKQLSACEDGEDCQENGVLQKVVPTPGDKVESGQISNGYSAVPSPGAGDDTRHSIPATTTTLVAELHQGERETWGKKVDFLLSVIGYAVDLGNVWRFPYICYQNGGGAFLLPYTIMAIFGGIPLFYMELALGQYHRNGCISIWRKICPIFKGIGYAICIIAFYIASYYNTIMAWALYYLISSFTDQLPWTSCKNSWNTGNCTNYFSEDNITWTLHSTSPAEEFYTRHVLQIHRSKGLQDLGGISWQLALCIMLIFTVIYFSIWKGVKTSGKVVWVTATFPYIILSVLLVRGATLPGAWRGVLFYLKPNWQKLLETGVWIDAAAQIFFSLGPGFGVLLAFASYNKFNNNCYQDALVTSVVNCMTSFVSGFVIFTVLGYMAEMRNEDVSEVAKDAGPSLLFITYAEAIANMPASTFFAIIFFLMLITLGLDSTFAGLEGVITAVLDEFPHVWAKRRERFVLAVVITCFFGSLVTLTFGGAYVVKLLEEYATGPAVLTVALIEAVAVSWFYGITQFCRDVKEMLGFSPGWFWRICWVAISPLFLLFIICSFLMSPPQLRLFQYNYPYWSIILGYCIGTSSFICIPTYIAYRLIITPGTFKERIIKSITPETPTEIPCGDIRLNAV

[3] = biological target: T1, monoamine oxidase A (MAO A) (Homo sapiens, UniProt P21397); test: metabolic pathway
T1 sequence (P21397 1-527): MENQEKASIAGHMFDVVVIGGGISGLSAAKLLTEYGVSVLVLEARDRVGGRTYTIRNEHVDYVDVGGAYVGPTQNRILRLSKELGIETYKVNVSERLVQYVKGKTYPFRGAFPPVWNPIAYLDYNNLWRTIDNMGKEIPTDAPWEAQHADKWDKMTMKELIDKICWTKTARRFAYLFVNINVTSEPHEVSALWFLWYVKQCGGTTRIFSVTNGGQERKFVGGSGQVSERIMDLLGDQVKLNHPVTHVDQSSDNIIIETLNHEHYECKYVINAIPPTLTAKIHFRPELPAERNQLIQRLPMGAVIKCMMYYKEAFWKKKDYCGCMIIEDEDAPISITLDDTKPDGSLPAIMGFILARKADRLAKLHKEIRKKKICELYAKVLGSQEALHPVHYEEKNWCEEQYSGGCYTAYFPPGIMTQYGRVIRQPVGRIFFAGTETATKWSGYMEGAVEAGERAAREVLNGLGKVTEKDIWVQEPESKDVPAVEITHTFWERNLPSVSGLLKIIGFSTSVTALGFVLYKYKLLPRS

individuals with FXS = settings: reported trials; failures due to aggravation of irritable, moody/perseverative and aggressive behaviors; cited from earlier work

norepinephrine reuptake (NE), sequence (P23975 whole entry): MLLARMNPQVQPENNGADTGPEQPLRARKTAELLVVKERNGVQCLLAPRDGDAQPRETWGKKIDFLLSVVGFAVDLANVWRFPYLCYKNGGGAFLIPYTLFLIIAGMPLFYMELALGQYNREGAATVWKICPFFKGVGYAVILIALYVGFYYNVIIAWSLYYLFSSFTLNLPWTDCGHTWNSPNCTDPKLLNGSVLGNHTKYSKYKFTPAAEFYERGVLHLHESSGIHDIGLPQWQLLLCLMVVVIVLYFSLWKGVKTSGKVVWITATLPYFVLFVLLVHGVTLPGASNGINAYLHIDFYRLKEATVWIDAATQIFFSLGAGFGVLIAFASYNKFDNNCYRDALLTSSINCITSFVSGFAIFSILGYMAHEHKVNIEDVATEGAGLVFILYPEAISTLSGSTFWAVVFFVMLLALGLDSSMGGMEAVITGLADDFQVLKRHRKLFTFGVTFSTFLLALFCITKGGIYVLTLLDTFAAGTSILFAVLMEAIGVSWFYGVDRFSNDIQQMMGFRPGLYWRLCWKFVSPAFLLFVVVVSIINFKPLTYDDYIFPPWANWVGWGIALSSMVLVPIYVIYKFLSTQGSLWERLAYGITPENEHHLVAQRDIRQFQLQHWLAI

SMILES	relative potency towards norepinephrine reuptake [1]	potency towards dopamine reuptake relative to norepinephrine reuptake (dopamine reuptake (DA))	potency towards serotonin reuptake relative to norepinephrine reuptake [2]	primary route of metabolism [3]	outcome of treatment in individuals with FXS (individuals with FXS)
c1ccc2cc([C@]34CNC[C@H]3C4)ccc2c1 [(1R,5S)-1-(naphthalen-2-yl)-3-azabicyclo[3.1.0]hexane]	most potency	one-sixth	one-fourteenth	primarily metabolized by monoamine oxidase A (MAO A)	
O=C1CCc2ccc(OCCCCN3CCN(c4cccc(Cl)c4Cl)CC3)cc2N1 [Aripiprazole]					some individuals with FXS failed treatment
CNCC[C@@H](Oc1ccccc1C)c1ccccc1 [atomoxetine]					unsuccessful
